Marks after values point to notes of the source that are not given here.
How the values were obtained:
[1] = test system: Purpureocillium lilacinum spores; assay: Spore viability (germination rate) of Purpureocillium lilacinum spores dispersed in fluid and stored at 30° C.; format: cell-based; conditions: P. lilacinum spores in fluid
Method: (§1) 3 g of Purpureocillium lilacinum pure spore powder were transferred into a formulation vessel (IKA Type DT-20 mixing vessel with dispersion tool for Ultra Turrax) using a sterile spoon. 12 mL of fluid were added into the respective formulation vessel and dispersed using ultra turrax tube drive control for 1 min at 3000 rpm; change direction after 30 sec. After this 2.8 mL were transferred in four sample bottles (Wheaton Serum vial, Type I) leaving little headspace and closed tight using crimpneck caps (Macherey—Nagel type N 13). Afterwards all sample bottles were transferred to an incubator set at 30° C. and stored for a given time.
In regular intervals a sample was retrieved from the storage location and analyzed for spore viability. For this purpose, the original samples were thoroughly homogenized. Aliquots of 0.25 g or 250 μL of each sample were transferred into 50 mL falcon tubes. The tubes were filled up to 25 g using a sterile aqueous solution containing 2% Tween 80 and homogenized by vortexing to achieve the first dilution step (1:100 dilution). This dilution was used for further dilution and spotting on agar.
For these samples, an alternative dispersion/dilution method was applied where the oil phase was stripped from the spores first: 0.25 g or 250 μL of sample are weighted into a 2 mL Eppendorf tube, and 0.5 mL of 2% Tween 80 is added, and the mixture is transferred into an Eppendorf centrifuge where it is centrifuged for 1 min at 10.000 rpm. The supernatant (=upper oily phase) is discarded by using a pipette. […] 250 μL or 0.25 g of each sample were transferred into a sterile 50 mL Falcon tube. The tubes were filled up to 25 g using a sterile aqueous solution containing 2% Tween 80 and homogenized by vortexing to achieve the first dilution step (1:100 dilution). This dilution was used for further dilution and spotting on agar.
(§2) For evaluation of spore germination rate prepare a 1:30000 dilution based on the 1:100 dilution achieved by multiple automated dilution (pipetting robot, 96 well plate). Afterwards 12×12 cm agar plates were taken and spotted with 10 times 5 μL of each sample using an automated 12-Channel pipet. Wait until liquid is soaked up by agar and transfer agar plate to an incubator and incubate at 25° C. for 17 hours. Open the plate and place it under the microscope. Randomly chose one area per spot and record the number of germinated and non-germinated spores that are within the designated field. At least 200 spores per sample need to be evaluated. If needed count more than one field per spot.

[2] = test system: Penicillium bilaii spores; assay: Spore viability (germination rate) of Penicillium bilaii spores dispersed in fluid and stored at 30° C.; format: cell-based; conditions: Penicillium bilaii spores in fluid; for spore viability [%] 6 w@30° C. (41-43 d) / spore viability [%] 3 m@30° C. (83-85 d): storage at 30° C.
Method: as §1, with “1.5 g” for “3 g”, “of Penicillium bilaii” for “of Purpureocillium lilacinum”, “spoon. 13.5” for “spoon. 12”, “N 13)” for “N 13).”
In regular intervals a sample was retrieved from the storage location and analyzed for spore viability. Therefore the original samples were thoroughly homogenized. Aliquots of 0.25 g or 250 μL of each sample are transferred into 50 mL falcon tubes. The tubes were filled up to 25 g using a sterile aqueous solution containing 2% Tween 80 and homogenized by vortexing to achieve the first dilution step (1:100 dilution). This dilution was used for further dilution and spotting on agar.
Not all samples mixed well or mixed at all in 2% Tween 80. For these samples, an alternative dispersion/dilution method was applied where the oil phase is stripped from the spores first: 0.25 g or 250 μL of sample are weighted into a 2 mL Eppendorf tube, and 0.5 mL of 2% Tween 80 is added, and the mixture is transferred into an Eppendorf centrifuge where it is centrifuged for 1 min at 10.000 rpm. The supernatant (=upper oily phase) is discarded by using a pipette. Afterwards 250 μL of Breakthru S 240 are added and the spores are well dispersed. 250 μL or 0.25 g of each sample are transferred into a sterile 50 mL Falcon tube. The tubes were filled up to 25 g using a sterile aqueous solution containing 2% Tween 80 and homogenized by vortexing to achieve the first dilution step (1:100 dilution). This dilution is used for further dilution and spotting on agar.
as §2, with “1:15000” for “1:30000”, “are” for “were”, “20°” for “25°”

Structure (SMILES)	spore viability [%] at day 1 [1] [%]	spore viability [%] after 5-6 w (35-40 d) ([1]; storage at 30° C., 35-40 d) [%]	spore viability [%] after 3 m (87-92 d) ([1]; storage at 30° C., 87-92 d) [%]	spore viability [%] initial (1-2 d) [2] [%]	spore viability [%] 6 w@30° C. (41-43 d) [2] [%]	spore viability [%] 3 m@30° C. (83-85 d) [2] [%]	spore viability [%] taken after 7 m of storage ([1]; storage at 30° C., 7 m)	spore viability [%] after 2 w (12-15 d) ([1]; storage at 30° C., 12-15 d) [%]	spore viability [%] after 1 m (27-28 d) ([1]; storage at 30° C., 27-28 d) [%]	spore viability [%] after 2 m (51-55 d) ([1]; storage at 30° C., 51-55 d) [%]
CCCCOC(=O)CCCCC(=O)OCCCC [Adimoll DB, di-n-Butyl adipate]	98.9	97.5	89.8	97.5	90.8	75.5	–	–	–	–
CC(=O)OCC(COC(C)=O)OC(C)=O [Triacetin, Glycerin triacetate]	98.3	–	–	92.9	83.2	57.6	69.4* %	97.9	96.2	90.8

Reference: patent US20260033491A1, “FUNGAL SPORE FORMULATIONS INCLUDING CARRIER FLUIDS” (priority 2018, published 2026)
